≈ marks a conversion by molar mass, not a printed value.
Tests used:
Type in all cases: functional
Enterococcus faecalis = test: Antibacterial activity against 10^4 to 10^5 CFU Enterococcus faecalis after 18 hrs by CLSI 2-fold agar dilution method
Staphylococcus aureus [1] = test: Antibacterial activity against 10^4 to 10^5 CFU methicillin-resistant Staphylococcus aureus after 18 hrs by CLSI 2-fold agar dilution method
Enterococcus = test: Antibacterial activity against 10^4 to 10^5 CFU vancomycin-resistant Enterococcus after 18 hrs by CLSI 2-fold agar dilution method
Staphylococcus [2] = test: Antibacterial activity against 10^4 to 10^5 CFU methicillin-resistant coagulase-negative Staphylococcus after 18 hrs by CLSI 2-fold agar dilution method
Moraxella catarrhalis = test: Antibacterial activity against 10^4 to 10^5 CFU Moraxella catarrhalis after 18 hrs by CLSI 2-fold agar dilution method
Streptococcus pneumoniae = test: Antibacterial activity against 10^4 to 10^5 CFU Streptococcus pneumoniae after 18 hrs by CLSI 2-fold agar dilution method
Streptococcus pyogenes = test: Antibacterial activity against 10^4 to 10^5 CFU Streptococcus pyogenes after 18 hrs by CLSI 2-fold agar dilution method
Staphylococcus [3] = test: Antibacterial activity against 10^4 to 10^5 CFU methicillin-susceptible coagulase-negative Staphylococcus after 18 hrs by CLSI 2-fold agar dilution method
Enterococcus faecium = test: Antibacterial activity against 10^4 to 10^5 CFU Enterococcus faecium after 18 hrs by CLSI 2-fold agar dilution method
Haemophilus influenzae [4] = test: Antibacterial activity against 7.5 x 10^8 CFU Haemophilus influenzae hd2 infected in ICR mouse systemic infection model assessed as mouse protection administered orally twice after 1 and 4 hrs post infection measured after 48 hrs
Staphylococcus aureus [5] = test: Antibacterial activity against 10^4 to 10^5 CFU methicillin-susceptible Staphylococcus aureus after 18 hrs by CLSI 2-fold agar dilution method
Haemophilus influenzae [6] = test: Antibacterial activity against 10^4 to 10^5 CFU Haemophilus influenzae after 18 hrs by CLSI 2-fold agar dilution method

SMILES | MIC50 (Enterococcus faecalis) | MIC90 (Enterococcus faecalis) | MIC50 (Staphylococcus aureus [1]) | MIC90 (Staphylococcus aureus [1]) | MIC50 (Enterococcus) | MIC90 (Enterococcus) | MIC50 (Staphylococcus [2]) | MIC90 (Staphylococcus [2]) | MIC50 (Moraxella catarrhalis) | MIC90 (Moraxella catarrhalis) | MIC50 (Streptococcus pneumoniae) | MIC90 (Streptococcus pneumoniae) | MIC50 (Streptococcus pyogenes) | MIC90 (Streptococcus pyogenes) | MIC50 (Staphylococcus [3]) | MIC90 (Staphylococcus [3]) | MIC50 (Enterococcus faecium) | MIC90 (Enterococcus faecium) | MIC50 (Staphylococcus aureus [5]) | MIC90 (Staphylococcus aureus [5]) | other results
CC(=O)NC[C@H]1CN(c2ccc(N3CCOCC3)c(F)c2)C(=O)O1 [LINEZOLID] | 2 µg/mL (≈ 5.93 µM) | 2 µg/mL (≈ 5.93 µM) | 2 µg/mL (≈ 5.93 µM) | 2 µg/mL (≈ 5.93 µM) | 2 µg/mL (≈ 5.93 µM) | 2 µg/mL (≈ 5.93 µM) | 1 µg/mL (≈ 2.96 µM) | 1 µg/mL (≈ 2.96 µM) | 8 µg/mL (≈ 23.7 µM) | 16 µg/mL (≈ 47.4 µM) | 1 µg/mL (≈ 2.96 µM) | 1 µg/mL (≈ 2.96 µM) | 2 µg/mL (≈ 5.93 µM) | 2 µg/mL (≈ 5.93 µM) | 1 µg/mL (≈ 2.96 µM) | 2 µg/mL (≈ 5.93 µM) | 2 µg/mL (≈ 5.93 µM) | 2 µg/mL (≈ 5.93 µM) | 2 µg/mL (≈ 5.93 µM) | 2 µg/mL (≈ 5.93 µM) | MIC (Enterococcus): 2 µg/mL (≈ 5.93 µM); MIC (Staphylococcus [2]): 1 µg/mL (≈ 2.96 µM); MIC (Staphylococcus [3]): 1 µg/mL (≈ 2.96 µM); MIC (Haemophilus influenzae [4]): 16 µg/mL (≈ 47.4 µM)
Cc1onc(-c2ccccc2)c1C(=O)N[C@@H]1C(=O)N2[C@@H]1SC(C)(C)[C@@H]2C(=O)O [OXACILLIN] | 16 µg/mL (≈ 39.9 µM) | > 64 µg/mL | > 64 µg/mL | > 64 µg/mL | > 64 µg/mL | > 64 µg/mL | > 64 µg/mL | > 64 µg/mL | 0.06 µg/mL (≈ 0.149 µM) | 0.06 µg/mL (≈ 0.149 µM) | 8 µg/mL (≈ 19.9 µM) | 16 µg/mL (≈ 39.9 µM) | 0.5 µg/mL (≈ 1.25 µM) | 8 µg/mL (≈ 19.9 µM) | 0.125 µg/mL (≈ 0.311 µM) | 1 µg/mL (≈ 2.49 µM) | > 64 µg/mL | > 64 µg/mL | 0.25 µg/mL (≈ 0.623 µM) | 0.5 µg/mL (≈ 1.25 µM) | MIC50 (Haemophilus influenzae [6]): < 0.008 µg/mL; MIC90 (Haemophilus influenzae [6]): 0.015 µg/mL (≈ 0.0374 µM)
CN[C@H](CC(C)C)C(=O)N[C@H]1C(=O)N[C@@H](CC(N)=O)C(=O)N[C@H]2C(=O)N[C@H]3C(=O)N[C@H](C(=O)N[C@H](C(=O)O)c4cc(O)cc(O)c4-c4cc3ccc4O)[C@H](O)c3ccc(c(Cl)c3)Oc3cc2cc(c3O[C@@H]2O[C@H](CO)[C@@H](O)[C@H](O)[C@H]2O[C@H]2C[C@](C)(N)[C@H](O)[C@H](C)O2)Oc2ccc(cc2Cl)[C@H]1O [VANCOMYCIN] | 2 µg/mL (≈ 1.38 µM) | 4 µg/mL (≈ 2.76 µM) | 1 µg/mL (≈ 0.69 µM) | 2 µg/mL (≈ 1.38 µM) | > 64 µg/mL | > 64 µg/mL | 2 µg/mL (≈ 1.38 µM) | 2 µg/mL (≈ 1.38 µM) |  |  | 0.5 µg/mL (≈ 0.345 µM) | 1 µg/mL (≈ 0.69 µM) | 1 µg/mL (≈ 0.69 µM) | 1 µg/mL (≈ 0.69 µM) | 2 µg/mL (≈ 1.38 µM) | 4 µg/mL (≈ 2.76 µM) | 1 µg/mL (≈ 0.69 µM) | 2 µg/mL (≈ 1.38 µM) | 1 µg/mL (≈ 0.69 µM) | 1 µg/mL (≈ 0.69 µM) | MIC50 (Haemophilus influenzae [6]): > 64 µg/mL; MIC90 (Haemophilus influenzae [6]): > 64 µg/mL
